Legend:
Experiment in all cases: CTG-3D luminescence at 96 h relative to day-0 seeding control (ratio to day 0); higher = more growth / less cytotoxicity; PDxO 3D drug screen, 96 h, CTG-3D normalised to day-0 seeding control.
HCI-005.E2 = tested on: HCI-005.E2 (organoid from a breast cancer xenograft with a HER2-positive history)
HCI-008 = tested on: HCI-008 (organoid from a HER2-enriched breast cancer xenograft)
HCI-010 = tested on: HCI-010 (organoid from a breast cancer xenograft)
HCI-015 = tested on: HCI-015 (organoid from a triple-negative breast cancer xenograft)
HCI-012 = tested on: HCI-012 (organoid from a breast cancer xenograft)
HCI-019 = tested on: HCI-019 (organoid from a triple-negative breast cancer xenograft)
HCI-011.E2 = tested on: HCI-011.E2 (organoid from an ER-positive breast cancer xenograft)

C/C=C1\NC(=O)[C@H]2CSSCC/C=C/[C@H](CC(=O)N[C@H](C(C)C)C(=O)N2)OC(=O)[C@H](C(C)C)NC1=O [romidepsin]
CTG-3D luminescence at 96 h
Conditions	12.5 pM	0.00025 µM	0.005 µM	0.1 µM	1 µM	10 µM	100 µM	625 fM
HCI-005.E2	1.07	0.734	0.155	0.0737	0.0546	0.00415	-0.00471	0.827
HCI-011.E2	1.55	1.34	0.559	0.47	0.382	0.0141	-0.00792	0.902

CTG-3D luminescence at 96 h
Conditions	12.5 pM	0.00025 µM	0.005 µM	0.1 µM	1 µM	10 µM	100 µM	625 fM
HCI-008, days in culture: 228	1.78	1.7887	0.632	0.0457	0.0185	0.0061	-0.00528	2.13
HCI-008, days in culture: 244	1.41	2.08	0.607	0.0448	0.0206	0.00309	-0.0086	2.35
HCI-010, days in culture: 52	1.97	2.29	1.13	0.189	0.128	0.0169	-0.00333	1.81
HCI-010, days in culture: 65	1.32	1.34	0.941	0.326	0.276	0.0354	-0.00525	1.52
HCI-010, days in culture: 103	2.94	3.14	1.69	0.316	0.226	0.0082	-0.00621	2.77
HCI-011.E2, days in culture: 74	2.09	2.7	1.63	0.493	0.486	0.0744	-0.0129	1.63
HCI-012, days in culture: 143	2.11	2.61	0.686	0.0407	0.0227	0.0103	-0.00702	1.66
HCI-012, days in culture: 162	2.25	2.64	0.53	0.0384	0.0172	0.00772	-0.00766	2.87
HCI-012, days in culture: 201	2.24	0.795	0.629	-0.145	-0.118	-0.159	-0.214	1.98
HCI-015, days in culture: 172	1.96	1.32	1.05	0.221	0.425	-0.0523	-0.0841	2.7
HCI-015, days in culture: 191	2.51	1.79	0.707	0.312	0.256	0.0321	0.00192	2.21
HCI-015, days in culture: 218	2.09	1.5	0.78	-0.0662	-0.0737	-0.275	-0.342	2.07
HCI-019, days in culture: 110	1.6	1.12	0.598	0.376	0.0772	0.000883	-0.00824	2.26
HCI-019, days in culture: 131	2.29	2.76	1.06	0.975	0.441	0.00479	-0.00826	3.05
HCI-019, days in culture: 152	1.95	1.43	1.55	0.685	0.489	0.00416	-0.00783	1.53

COc1cc2c(Oc3ccc4[nH]c(C)cc4c3F)ncnc2cc1OCCCN1CCCC1 [cediranib]
CTG-3D luminescence at 96 h
Conditions	12.5 pM	0.00025 µM	0.005 µM	0.1 µM	1 µM	10 µM	100 µM	625 fM
HCI-005.E2	1.5	1.54	1.77	1.68	1.11	0.322	0.0129	1.54
HCI-011.E2	1.53	1.52	1.45	2.05	1.65	1.44	0.0243	1.97

CTG-3D luminescence at 96 h
Conditions	12.5 pM	0.00025 µM	0.005 µM	0.1 µM	1 µM	10 µM	100 µM	625 fM
HCI-008, days in culture: 228	1.83	1.99	1.53	2.02	1.69	-0.102	-0.136	1.51
HCI-008, days in culture: 244	1.25	1.7	1.65	2.04	1.62	0.0639	-0.000797	1.95
HCI-010, days in culture: 52	1.94	2.48	2.23	2.46	2.24	0.221	-0.0298	2.13
HCI-010, days in culture: 65	1.55	1.65	1.76	1.77	1.42	0.593	-0.00161	1.63
HCI-010, days in culture: 103	3.58	3.43	3.17	3.43	2.66	0.461	-0.00732	3.19
HCI-011.E2, days in culture: 74	2.32	2.91	2.13	2.41	2.47	2.28	0.0101	2.38
HCI-012, days in culture: 143	2.15	1.81	1.84	2.55	2.33	0.0236	-0.00161	2
HCI-012, days in culture: 162	2.22	1.99	1.54	2.43	2.26	0.0254	-0.00236	3.02
HCI-012, days in culture: 201	2.36	2.05	1.5	1.45	2.29	0.0167	-0.00095	1.66
HCI-015, days in culture: 172	2.29	1.76	2.22	1.47	2.43	0.0376	-0.0013	2.51
HCI-015, days in culture: 191	2.09	1.61	1.52	1.16	1.39	0.0236	-0.00165	1.33
HCI-015, days in culture: 218	1.26	1.53	1.55	1.85	1.49	0.0308	-0.00209	1.68
HCI-019, days in culture: 110	1.88	1.82	1.98	2.39	1.07	0.1	-0.00352	2.01
HCI-019, days in culture: 131	2.89	3.08	3.29	3.43	1.59	0.0352	-0.00454	3.39
HCI-019, days in culture: 152	2.41	3.23	2.62	1.68	0.851	0.22	0.000827	2.04
